Entries after “also recorded” stand apart in the source; their conditions may differ. Like-named read-outs stand apart in the source and are kept apart here.

The record followed here is US9623008B2, “Targeting abnormal DNA repair in therapy-resistant breast and pancreatic cancers” (STC.UNM, priority 2012, dated 2017).

Type in all cases: cell-based
Assay [1] relates to MCF7 cells following siRNA knockdown of Ku70. The assay can be described thus: Colony survival assay, MCF7 after siRNA knockdown of Ku70. The conditions noted are these: Ku70 knockdown versus siRNA control, 1 μmol/L, 10-day growth. As for the experimental part:
(§1) Cells were seeded at a density of 1,000 cells per well in methylcellulose-based medium in the presence of DNA ligase I/III inhibitor, L67 (0.5 μmol/L; ref. 10); PARP inhibitor, ABT888 (0.125 μmol/L); or L67 (0.5 μmol/L) and ABT888 (0.125 μmol/L) for approximately 10 days. Colonies were stained with 2-(4-iodophenyl)-3-(4-nitrophenyl)-5-phenlytetrazolium chloride (1 mg/mL) for 16 to 24 hours before evaluation. Vital colonies were counted with an automated image analysis system (Omincon FAS IV, BIOSYS GmbH). Experiments were conducted at least 3 times, and results are representative of the mean of 3 independent experiment ±SEM.
Target plus SMART pool siRNA oligonucleotides for G22P1, DNA ligase III, and Ku70 mRNAs were purchased from Dharmacon RNA Technologies. The oligonucleotides were transiently transfected into cells with Amaxa Nucleofector Kit V (VCA-1003) in Nucleofector II Amaxa Biosystems. For transfection, […] of 20 μmol/L siRNA was used per 2×10^6 cells. […] Cells were harvested for Western blotting 72 hours after transfection. siRNA nontargeting pool (Dharmacon RNA Technologies) was used as a control.

A further assay concerns MCF10A. The assay can be described thus: MTT cell proliferation assay, MCF10A. The conditions noted are these: single agents, 72 hours, read-out: IC50, growth. As for the experimental part:
(§2) Cells were grown in 96-well plates with DNA ligase I/III inhibitor L67 (up to 60 μmol/L) and/or the PARP inhibitor ABT888 (up to 80 μmol/L) for 72 hours. Approximately 20 hours prior to evaluation, MTT labeling reagent (MTT in PBS; Roche) was added to each well. After incubating for 4 hours with the MTT labeling reagent, solubilization solution (10% SDS in 0.01 mol/L HCl; Roche) was added to solubilize the formazan salt crystals. The results were spectrophotometrically quantified by a VersaMax Microplate Reader at a wavelength of 550 nm and a reference wavelength of 650 nm. The effect of combining the DNA repair inhibitors was analyzed by determining the combination index (CI) described by Chou and Talalay (18, 19) with Calcusyn software (version 2.0; Biosoft). This calculation takes into account of both potency (median dose, Dm or IC50) and the shape of the dose-effect curve (the m value) to calculate the CI. L67 and ABT888 were combined at fixed ratios of doses that corresponded to 0.0001, 0.001, 0.005, 0.01, 0.05, 0.1, 0.5, 1, and 10 times the individual IC50 values. Synergy, additivity, and antagonism are defined as CI<1, CI ¼ 1, and CI>1, respectively.

Assay [2] deals with tumorigenic cell lines (MCF7, TAM1, TAM2, TAM3, LTLT). The assay can be described thus: Colony survival assay, MCF7 and therapy-resistant derivatives. The conditions noted are these: L67 0.5 μmol/L or ABT888 0.125 μmol/L alone, 10-day growth, compared with MCF10A. As for the experimental part: as §1
The next assay relates to breast cancer cell lines. The assay can be described thus: MTT cell proliferation assay, breast cancer cell lines. To be noted: single agents, all the breast cancer cell lines, 72 hours; read-out: IC50, growth and viability. As for the experimental part:
as §2
On the technique in general: Formazan colour is commonly taken as a measure of viable cells.

With `N#Cc1ccc(C(c2ccc(C#N)cc2)n2cncn2)cc1` [letrozole], the “sensitivity (colony survival)” value in assay [1] is recorded as “decreased sensitivity”.
On the same count and under the same terms, for `CC/C(=C(\c1ccccc1)c1ccc(OCCN(C)C)cc1)c1ccccc1` [tamoxifen] the value was “decreased sensitivity”.
As to `C[C@]1(c2nc3c(C(N)=O)cccc3[nH]2)CCCN1` [ABT888, Veliparib], the IC50 in the assay on MCF10A (Homo sapiens, MCF-10A) is ~10 µM; in the assay with breast cancer cell lines it was ~8 µM. In assay [2], the “colony survival, inhibitor alone” value is on record as “small reductions”.
As for `Cc1c(Br)cc(NCC(=O)NN=Cc2cc([N+](=O)[O-])ccc2O)cc1Br` [L67], the IC50 with MCF10A and with breast cancer cell lines was ~6 µM throughout. The “colony survival, inhibitor alone” value in assay [2] is recorded as “small reductions; also recorded: little effect”.

The term IC50 denotes the concentration that gives 50% inhibition.
